Laboratory results as given in patent US20060069132A1, “Azolecarboxamide herbicides” (priority 2004, published 2006).

Experiments:
rice [1] = assay: Test B flooded paddy test; assay type: in vivo, Oryza sativa; details: 1000 g ai/ha, visual rating, scale 0 to 100 (0 no effect, 100 complete control), 13 to 15 days
How it was run: (§1)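 Postemergence plants were sprayed with formulated test chemicals at 2 to 18 cm height (1- to 4-leaf stage); paddy species were grown to the 2-leaf stage. After 13 to 15 days in a greenhouse, injury was rated visually against untreated controls on a 0–100 scale (0 = no effect, 100 = complete control).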

rice [2] = assay: Test B pre-/postemergence herbicide test; assay type: in vivo, Oryza sativa; details: preemergence
How it was run: (§2)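 Response was scored visually 13 to 15 days after treatment against untreated greenhouse controls, 0 meaning no effect and 100 complete control. Formulations (solvent mixture plus surfactant) went onto soil after planting, onto foliage of 1- to 4-leaf plants, and onto 2-leaf plants in a flooded paddy set including rice and barnyardgrass.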

wheat = assay: Test B postemergence herbicide test; assay type: in vivo, Triticum aestivum; parameters: key to Wheat plant response rating: 0 = no effect, 100 = complete control; details: postemergence, 500 g ai/ha; visual rating, scale 0 (no effect) to 100 (complete control)
How it was run: (§3)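 Greenhouse test; postemergence application to plants at 1–4 leaves (2–18 cm); paddy species at 2 leaves; evaluated visually vs controls at 13–15 days; scale 0–100 (100 = complete control).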

blackgrass = assay: Test B postemergence herbicide test; assay type: in vivo, Alopecurus myosuroides; details: postemergence, visual rating, scale 0 (no effect) to 100 (complete control)
How it was run: as §1

pigweed = assay: Test B pre-/postemergence herbicide test; assay type: in vivo, Amaranthus retroflexus; details: for Plant response rating, Pigweed: preemergence; for Pigweed plant response rating: postemergence, visual rating, scale 0 (no effect) to 100 (complete control)
How it was run: as §2

lambsquarters = assay: Test B pre-/postemergence herbicide test; assay type: in vivo, Chenopodium album; details: for Plant response rating, Lambsquarters: preemergence; for Lambsquarters plant response rating: postemergence, visual rating, scale 0 (no effect) to 100 (complete control)
How it was run: as §2

[3] = test system: small flower umbrella sedge; assay: Test B flooded paddy test; assay type: in vivo, Cyperus difformis; details: 1000 g ai/ha, visual rating, scale 0 to 100 (0 no effect, 100 complete control), 13 to 15 days
How it was run: as §1

large crabgrass = assay: Test B pre-/postemergence herbicide test; assay type: in vivo, Digitaria sanguinalis; details: for Plant response rating, Crabgrass, Large: preemergence; for Crabgrass, Large plant response rating: postemergence, visual rating, scale 0 (no effect) to 100 (complete control)
How it was run: as §2

Surinam grass = assay: Test B pre-/postemergence herbicide test; assay type: in vivo, Urochloa decumbens; details: for Plant response rating, Surinam Grass: preemergence; for Surinam Grass plant response rating: postemergence, visual rating, scale 0 (no effect) to 100 (complete control)
How it was run: as §2

barnyardgrass [4] = assay: Test B flooded paddy test; assay type: in vivo, Echinochloa crus-galli; details: 1000 g ai/ha, visual rating, scale 0 to 100 (0 no effect, 100 complete control), 13 to 15 days
How it was run: as §1

corn = assay: Test B pre-/postemergence herbicide test; assay type: in vivo, Zea mays; details: for Plant response rating, Corn: preemergence; for Corn plant response rating: postemergence, visual rating, scale 0 (no effect) to 100 (complete control)
How it was run: as §2

morningglory = assay: Test B pre-/postemergence herbicide test; assay type: in vivo, Ipomoea coccinea; details: for Plant response rating, Morningglory: preemergence; for Morningglory plant response rating: postemergence, visual rating, scale 0 (no effect) to 100 (complete control)
How it was run: (§4)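 Seeds were planted and treated preemergence with compounds formulated in a non-phytotoxic solvent mixture containing surfactant, while plants at the 1- to 4-leaf stage (2 to 18 cm) received postemergence sprays. Flooded paddy plants were grown to the 2-leaf stage. After 13 to 15 days in a greenhouse, injury was visually rated 0–100 against untreated controls.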

barnyardgrass [5] = assay: Test B pre-/postemergence herbicide test; assay type: in vivo, Echinochloa crus-galli; details: for Plant response rating, Barnyardgrass: preemergence; for Barnyardgrass plant response rating: postemergence, visual rating, scale 0 (no effect) to 100 (complete control)
How it was run: as §4

giant foxtail = assay: Test B pre-/postemergence herbicide test; assay type: in vivo, Setaria faberi; details: for Plant response rating, Foxtail, Giant: preemergence; for Foxtail, Giant plant response rating: postemergence, visual rating, scale 0 (no effect) to 100 (complete control)
How it was run: as §2

velvetleaf = assay: Test B pre-/postemergence herbicide test; assay type: in vivo, Abutilon theophrasti; details: for Plant response rating, Velvetleaf: preemergence; for Velvetleaf plant response rating: postemergence, visual rating, scale 0 (no effect) to 100 (complete control)
How it was run: as §2

cocklebur = assay: Test B pre-/postemergence herbicide test; assay type: in vivo, Xanthium strumarium; details: for Plant response rating, Cocklebur: preemergence; for Cocklebur plant response rating: postemergence, visual rating, scale 0 (no effect) to 100 (complete control)
How it was run: as §4

ducksalad = assay: Test B flooded paddy test; assay type: in vivo, Heteranthera limosa; details: 1000 g ai/ha, visual rating, scale 0 to 100 (0 no effect, 100 complete control), 13 to 15 days
How it was run: as §1

wild oat = assay: Test B postemergence herbicide test; assay type: in vivo, Avena fatua; details: postemergence, visual rating, scale 0 (no effect) to 100 (complete control)
How it was run: as §3

[6] = 500 g ai/ha, visual rating 0-100, 0 no effect, 100 complete control
[7] = 125 g ai/ha, 0 to 100 scale, 0 is no effect, 100 is complete control

C=CCN(C)C(=O)c1cccc(NC(=O)c2cc(C(C)(C)C)nn2CC)n1 [Compound 163]
Rice plant response rating (rice [1]): 60 | Plant response rating, Rice (rice [2]; [6]): 80 | Plant response rating, Rice (rice [2]; [7]): 80 | Wheat plant response rating (wheat): 10 | Blackgrass plant response rating (blackgrass; 125 g ai/ha): 10 | Blackgrass plant response rating (blackgrass; 500 g ai/ha): 50 | Plant response rating, Pigweed (pigweed; [6]): 100 | Pigweed plant response rating (pigweed; 125 g ai/ha): 60 | Pigweed plant response rating (pigweed; 500 g ai/ha): 80 | Plant response rating, Pigweed (pigweed; [7]): 90 | Plant response rating, Lambsquarters (lambsquarters; [6]): 100 | Lambsquarters plant response rating (lambsquarters; 125 g ai/ha): 50 | Lambsquarters plant response rating (lambsquarters; 500 g ai/ha): 80 | Plant response rating, Lambsquarters (lambsquarters; [7]): 80 | Sedge, Umbrella plant response rating [3]: 70 | Plant response rating, Crabgrass, Large (large crabgrass; [6]): 90 | Crabgrass, Large plant response rating (large crabgrass; 125 g ai/ha): 20 | Crabgrass, Large plant response rating (large crabgrass; 500 g ai/ha): 40 | Plant response rating, Crabgrass, Large (large crabgrass; [7]): 60 | Plant response rating, Surinam Grass (Surinam grass; [6]): 70 | Surinam Grass plant response rating (Surinam grass; 125 g ai/ha): 0 | Surinam Grass plant response rating (Surinam grass; 500 g ai/ha): 40 | Plant response rating, Surinam Grass (Surinam grass; [7]): 50 | Barnyardgrass plant response rating (barnyardgrass [4]): 70 | Plant response rating, Corn (corn; [6]): 40 | Corn plant response rating (corn; 125 g ai/ha): 0 | Corn plant response rating (corn; 500 g ai/ha): 0 | Plant response rating, Corn (corn; [7]): 0 | Plant response rating, Morningglory (morningglory; [6]): 70 | Morningglory plant response rating (morningglory; 125 g ai/ha): 0 | Morningglory plant response rating (morningglory; 500 g ai/ha): 0 | Plant response rating, Morningglory (morningglory; [7]): 60 | Plant response rating, Barnyardgrass (barnyardgrass [5]; [6]): 90 | Barnyardgrass plant response rating (barnyardgrass [5]; 125 g ai/ha): 0 | Barnyardgrass plant response rating (barnyardgrass [5]; 500 g ai/ha): 0 | Plant response rating, Barnyardgrass (barnyardgrass [5]; [7]): 60 | Plant response rating, Foxtail, Giant (giant foxtail; [6]): 80 | Foxtail, Giant plant response rating (giant foxtail; 125 g ai/ha): 0 | Foxtail, Giant plant response rating (giant foxtail; 500 g ai/ha): 40 | Plant response rating, Foxtail, Giant (giant foxtail; [7]): 20 | Plant response rating, Velvetleaf (velvetleaf; [6]): 90 | Velvetleaf plant response rating (velvetleaf; 125 g ai/ha): 40 | Velvetleaf plant response rating (velvetleaf; 500 g ai/ha): 80 | Plant response rating, Velvetleaf (velvetleaf; [7]): 70 | Plant response rating, Cocklebur (cocklebur; [6]): 70 | Cocklebur plant response rating (cocklebur; 125 g ai/ha): 10 | Cocklebur plant response rating (cocklebur; 500 g ai/ha): 60 | Plant response rating, Cocklebur (cocklebur; [7]): 70 | Ducksalad plant response rating (ducksalad): 80 | Oat, Wild plant response rating (wild oat; 125 g ai/ha): 10 | Oat, Wild plant response rating (wild oat; 500 g ai/ha): 30
